Values joined by “and” are separate entries in the source; they are usually repeats but may differ in a detail not shown here. Equal entries are not always repeated. Where two headings read alike, the source gives them in different places.
System: metastatic castration-resistant prostate cancer (mCRPC) with DNA-repair anomalies
Details: for CTC Response (CTC = 0 at week 8), % of subjects / CTC Response (CTC = 0 at week 8), number of subjects: ITT with baseline CTC >0 (N=131)
Procedure: The planned sample size was approximately 120 subjects with measurable disease who were biomarker-positive (approximately 75 subjects with DNA repair anomalies in BRCA [BRCA1 or BRCA2] and approximately 45 subjects with biallelic DNA-repair anomalies in non-BRCA [ATM, FANCA, PALB2, CHEK2, BRIP1, or HDAC2]).
Efficacy objectives were evaluated for subjects meeting the biomarker selection criteria described in the protocol. All subjects were monitored for safety during the study period, and up to 30 days after the last dose of study drug. Treatment continued until disease progression, unacceptable toxicity, death, or termination of the study by the sponsor.
Diagnosis and Main Criteria for Inclusion: The target population consisted of male subjects over the age of 18 years with mCRPC and DNA-repair anomalies (biallelic mutations and germline pathogenic mutations only for BRCA1 or BRCA2 mutations) who had received at least 1 prior taxane-based chemotherapy and at least 1 prior AR targeted therapy (second-generation or later). Subjects were asked to provide a tumor tissue sample (archival or recently collected, if available), and a blood sample for analysis of DNA-repair anomalies using a sponsor-validated assay.
Criteria for Evaluation: Efficacy assessments included chest, abdomen, and pelvis CT or MRI scans and whole-body bone scans (^99mTc) to evaluate objective response and disease progression.
The primary endpoint was ORR and summarized for the BRCA analysis set along with the 95% 2-sided exact CI. In addition, the counts and percentage of subjects in each response category (CR. PR, etc.) were tabulated. ORR in non-BRCA subjects was analyzed in the same way.
Descriptive summaries of CTC response were generated for BRCA and non-BRCA analysis sets, measurable and non-measurable subgroups and tabulated with its 2-sided 95% exact CI. Waterfall plots of percent change in CTC were also presented, showing the percentage change in CTC counts from baseline to 8 weeks, as well as maximal CTC count declines. All time to event secondary endpoints were evaluated using Kaplan-Meier method for BRCA and non-BRCA analysis sets. Median time to event and the corresponding 95% CI were provided. Descriptive summaries were provided for BRCA and non-BRCA analysis sets.
Time to degradation was determined using the following meaningful change threshold values: FACT-P Total (10-point reduction from baseline), EQ-5D-5L Index (0.09-point reduction from baseline). EQ-5D-5L VAS (10-point reduction from baseline), and BPI SF worst pain intensity item (30% reduction from baseline).
The primary endpoint was ORR, defined as the proportion of subjects with BRCA DNA-repair anomalies and measurable disease whose best response was either CR or PR as defined by RECIST 1.1 (Eisenhauer et al 2009) and who had no evidence of bone progression according to the PCWG3 criteria (Scher et al 2016).
ORR final analysis was performed approximately 6 months from Cycle 1 Day 1 of the last subject with a BRCA DNA-repair anomaly and measurable disease. Objective response as determined by investigator assessment was considered as the primary analysis.
Subjects who discontinued the study without a response assessment were considered as non-responders in the analysis. The objective response rate was calculated and its 2-sided 95% exact CI presented. In addition, the counts and percentage of subjects in each response category (CR, PR, etc.) were tabulated.
The following analyses of CTC response were performed for BRCA and non-BRCA analysis sets, measurable and non-measurable subgroups: • Descriptive summaries • CTC response rate was tabulated with its 2-sided 95% exact CI
All time to event secondary endpoints were evaluated using Kaplan-Meier method for BRCA and non-BRCA analysis sets. Median time to event and the corresponding 95% CI were provided. Descriptive summaries were provided for BRCA and non-BRCA analysis sets.

[1] = BRCA, ITT (N=142), Kaplan-Meier, 300 mg once daily
[2] = BRCA, 300 mg once daily, listed as niraparib
[3] = BRCA, measurable ITT (N=76), 300 mg once daily
[4] = BRCA, measurable ITT responders (N=26), 300 mg once daily
[5] = BRCA, measurable ITT responders (N=26), Kaplan-Meier, 300 mg once daily
[6] = BRCA, patients with baseline CTC ≥5 (n=117), 300 mg once daily
[7] = NON-BRCA, ITT (N=81), 300 mg once daily
[8] = NON-BRCA, measurable ITT responders (N=5), 300 mg once daily
[9] = NON-BRCA, measurable ITT responders (N=5), Kaplan-Meier, 300 mg once daily
[10] = Non-BRCA (n = 81), 300 mg once daily
[11] = Non-BRCA, patients with baseline CTC ≥5 (n=60), 300 mg once daily

NC(=O)c1cccc2cn(-c3ccc([C@@H]4CCCNC4)cc3)nc12 [Niraparib, 2-[4-[(3S)-piperidin-3-yl]phenyl]-2H-indazole-7-carboxamide]
Time to PSA progression: time to event, Median [1]: 5.13 months
Time to radiographic progression: time to event, 25th percentile [1]: 4.76 months
Time to radiographic progression: time to event, 75th percentile [1]: 11.63 months
Time to symptomatic skeletal event (SSE): time to event, Median [1]: 13.80 months
Time to symptomatic skeletal event: time to event, 25th percentile [1]: 7.52 months
rPFS: time to event, 25th percentile [1]: 4.44 months
rPFS: time to event, 75th percentile [1]: 11.56 months
CTC Response (CTC = 0 at week 8), % of subjects (BRCA, 300 mg once daily): (23.7%)
CTC Response (CTC = 0 at week 8), number of subjects (BRCA, 300 mg once daily): 31
CTC Response (CTC = 0 at week 8), % of subjects [2]: (23.7) %
CTC Response (CTC = 0 at week 8), number of subjects [2]: 31/131
DOR, median (range) (BRCA, as printed in Table 13, 300 mg once daily): 6.28 mo
Best Overall Response: Complete Response (CR), % of subjects [3]: 2.6%
Best Overall Response: Complete Response (CR), number of subjects [3]: 2
Best Overall Response: Not Available (NA), % of subjects [3]: 9.2%
Best Overall Response: Not Available (NA), number of subjects [3]: 7
Best Overall Response: Partial Response (PR), % of subjects [3]: 31.6%
Best Overall Response: Partial Response (PR), number of subjects [3]: 24
Best Overall Response: Progressive Disease (PD), % of subjects [3]: 21.1%
Best Overall Response: Progressive Disease (PD), number of subjects [3]: 16
Best Overall Response: Stable Disease (SD), % of subjects [3]: 35.5%
Best Overall Response: Stable Disease (SD), number of subjects [3]: 27
ORR (objective response rate, RECIST 1.1, no bone progression per PCWG3), % of subjects [3]: 34.2%
ORR (objective response rate, RECIST 1.1, no bone progression per PCWG3), number of subjects [3]: 26
Objective response confirmed: Complete Response (CR), % of subjects [3]: 2.6%
Objective response confirmed: Complete Response (CR), number of subjects [3]: 2
Objective response confirmed: Partial Response (PR), % of subjects [3]: 31.6%
Objective response confirmed: Partial Response (PR), number of subjects [3]: 24
Duration of objective response: 6-month event-free rate [4]: 0.464
Duration of objective response: 12-month event-free rate [4]: 0.000
Duration of objective response: 18-month event-free rate [4]: 0.000
Duration of objective response: 24-month event-free rate [4]: 0.000
Duration of objective response: Censored, % of subjects [4]: (23.1%)
Duration of objective response: Censored, number of subjects [4]: 6
Duration of objective response: Event, % of subjects [4]: (76.9%)
Duration of objective response: Event, number of subjects [4]: 20
Duration of objective response: time to event, 25th percentile [5]: 3.75 months
Duration of objective response: time to event, 75th percentile [5]: 7.20 months
Duration of objective response: time to event, Median [5]: 5.55 months
CTC conversion (CTC count ≥5/7.5 mL blood at baseline to <5/7.5 mL blood at nadir), % of subjects [6]: 47.0%
CTC conversion (CTC count ≥5/7.5 mL blood at baseline to <5/7.5 mL blood at nadir), number of subjects [6]: 55
Time to PSA progression: 12-month event-free rate [7]: 0.000
Time to PSA progression: 18-month event-free rate [7]: 0.000
Duration of objective response: 6-month event-free rate [8]: 0.500
Duration of objective response: 18-month event-free rate [8]: 0.000
Duration of objective response: 24-month event-free rate [8]: 0.000
Duration of objective response: Censored, % of subjects [8]: (20.0%)
Duration of objective response: Censored, number of subjects [8]: 1
Duration of objective response: Event, % of subjects [8]: (80.0%)
Duration of objective response: Event, number of subjects [8]: 4
Duration of objective response: time to event, 25th percentile [9]: 2.96 months
Duration of objective response: time to event, 75th percentile [9]: 6.95 months
Duration of objective response: time to event, Median [9]: 5.16 months
CRR (composite response rate), % of subjects [10]: 14.8%
CRR (composite response rate), number of subjects [10]: 12
PSA50 (≥50% decline in prostate-specific antigen), % of subjects [10]: 4.9%
PSA50 (≥50% decline in prostate-specific antigen), number of subjects [10]: 4
CTC conversion (CTC count ≥5/7.5 mL blood at baseline to <5/7.5 mL blood at nadir), % of subjects [11]: 15.0%
CTC conversion (CTC count ≥5/7.5 mL blood at baseline to <5/7.5 mL blood at nadir), number of subjects [11]: 9
Best Overall Response: Complete Response (CR), number of subjects (in vivo): 0
Best Overall Response: Not Available (NA), % of subjects (in vivo): (17.0%)
Best Overall Response: Not Available (NA), number of subjects (in vivo): 8
Best Overall Response: Partial Response (PR), % of subjects (in vivo): (10.6%)
Best Overall Response: Partial Response (PR), number of subjects (in vivo): 5
Best Overall Response: Progressive Disease (PD), % of subjects (in vivo): (31.9%)
Best Overall Response: Progressive Disease (PD), number of subjects (in vivo): 15
Best Overall Response: Stable Disease (SD), % of subjects (in vivo): (40.4%)
Best Overall Response: Stable Disease (SD), number of subjects (in vivo): 19
Duration of objective response: 12-month event-free rate (in vivo): 0.000
Objective response confirmed: Complete Response (CR), number of subjects (in vivo): 0
Objective response confirmed: Partial Response (PR), % of subjects (in vivo): 5 (10.6%)
Objective response confirmed: Partial Response (PR), number of subjects (in vivo): 5 (10.6%)
Overall survival: 6-month event-free rate (in vivo): 0.841 and 0.709 and 0.793
Overall survival: 12-month event-free rate (in vivo): 0.564 and 0.413 and 0.508
Overall survival: 18-month event-free rate (in vivo): 0.334 and 0.198 and 0.278
Overall survival: 24-month event-free rate (in vivo): 0.152 and 0.111 and 0.136
Overall survival: time to event, 25th percentile (in vivo): 8.31 months and 4.86 months and 7.16 months
Overall survival: time to event, 75th percentile (in vivo): 19.52 months and 16.53 months and 19.42 months
Time to PSA progression: 6-month event-free rate (in vivo): 0.144
Time to PSA progression: 24-month event-free rate (in vivo): 0.000
Time to PSA progression: Censored, % of subjects (in vivo): (51.9%)
Time to PSA progression: Censored, number of subjects (in vivo): 57 and 42
Time to PSA progression: Event, % of subjects (in vivo): (48.1%)
Time to PSA progression: time to event, 25th percentile (in vivo): 2.79 months
Time to PSA progression: time to event, 75th percentile (in vivo): 4.63 months and 8.31 months
Time to PSA progression: time to event, Median (in vivo): 3.65 months
Time to radiographic progression: 6-month event-free rate (in vivo): 0.299
Time to radiographic progression: Censored, % of subjects (in vivo): (34.6%)
Time to radiographic progression: Censored, number of subjects (in vivo): 28
Time to radiographic progression: Event, number of subjects (in vivo): 53
Time to radiographic progression: time to event, 25th percentile (in vivo): 1.87 months
Time to radiographic progression: time to event, 75th percentile (in vivo): 8.11 months
Time to symptomatic skeletal event (SSE): time to event, Median (in vivo): 10.35 months
Time to symptomatic skeletal event: 6-month event-free rate (in vivo): 0.792
Time to symptomatic skeletal event: 12-month event-free rate (in vivo): 0.379
Time to symptomatic skeletal event: 18-month event-free rate (in vivo): 0.190
Time to symptomatic skeletal event: Censored, % of subjects (in vivo): (76.5%)
Time to symptomatic skeletal event: Censored, number of subjects (in vivo): 62
Time to symptomatic skeletal event: time to event, 25th percentile (in vivo): 6.51 months
Time to symptomatic skeletal event: time to event, 75th percentile (in vivo): 15.54 months
rPFS: 6-month event-free rate (in vivo): 0.289
rPFS: Censored, % of subjects (in vivo): (29.6%)
rPFS: Censored, number of subjects (in vivo): 24
rPFS: Event, % of subjects (in vivo): (70.4%)
rPFS: Event, number of subjects (in vivo): 57
rPFS: time to event, 25th percentile (in vivo): 1.87 months
rPFS: time to event, 75th percentile (in vivo): 6.47 months
